28 molecules from US20240018161A1, “MODULATORS OF CYSTIC FIBROSIS TRANSMEMBRANE CONDUCTANCE REGULATOR” (VERTEX PHARMACEUTICALS INCORPORATED, priority 2020, published 2024) can be followed below.

The target in the experiment is CFTR-mediated chloride transport in human intestinal epithelial enteroid cells (Homo sapiens, UniProt P13569). The experiment can be described thus: Membrane potential dye, Enteroid Assay A. Particulars: for pEC50: read-out: Ent. A EC50. Format: cell-based. An outline of the steps:
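Membrane potential dye (20 μM methyl oxonol, with 30 μM CaCCinh-A01 and 30 μM Chicago Sky Blue) loaded 25 min at room temperature into ROCK-inhibitor-seeded human enteroid cells. Chloride-free stimulation buffer triggered transport, followed by 15 min fluorescence. % Activity relative to 3 μM/3 μM/300 nM triple-combination control.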

Where [1] appears, read: enteroid cells incubated with test compound 18-24 hours, acute 10 μM forskolin and 300 nM N-[2,4-bis(1,1-dimethylethyl)-5-hydroxyphenyl]-1,4-dihydro-4-oxoquinoline-3-carboxamide.
The mark [2] stands for this setting: percentage of chloride transport of triple combination control (3 μM N-[(6-amino-2-pyridyl)sulfonyl]-6-(3-fluoro-5-isobutoxy-phenyl)-2-[(4S)-2,2,4-trimethylpyrrolidin-1-yl]pyridine-3-carboxamide based).

The structures appear in SMILES notation. pEC50: −log10 of the molar value. Like-named read-outs stand apart in the source and are kept apart here.

CFTR-mediated chloride transport in human intestinal epithelial enteroid cells, sequence (P13569 with tags, fused parts or gaps DEL508-508): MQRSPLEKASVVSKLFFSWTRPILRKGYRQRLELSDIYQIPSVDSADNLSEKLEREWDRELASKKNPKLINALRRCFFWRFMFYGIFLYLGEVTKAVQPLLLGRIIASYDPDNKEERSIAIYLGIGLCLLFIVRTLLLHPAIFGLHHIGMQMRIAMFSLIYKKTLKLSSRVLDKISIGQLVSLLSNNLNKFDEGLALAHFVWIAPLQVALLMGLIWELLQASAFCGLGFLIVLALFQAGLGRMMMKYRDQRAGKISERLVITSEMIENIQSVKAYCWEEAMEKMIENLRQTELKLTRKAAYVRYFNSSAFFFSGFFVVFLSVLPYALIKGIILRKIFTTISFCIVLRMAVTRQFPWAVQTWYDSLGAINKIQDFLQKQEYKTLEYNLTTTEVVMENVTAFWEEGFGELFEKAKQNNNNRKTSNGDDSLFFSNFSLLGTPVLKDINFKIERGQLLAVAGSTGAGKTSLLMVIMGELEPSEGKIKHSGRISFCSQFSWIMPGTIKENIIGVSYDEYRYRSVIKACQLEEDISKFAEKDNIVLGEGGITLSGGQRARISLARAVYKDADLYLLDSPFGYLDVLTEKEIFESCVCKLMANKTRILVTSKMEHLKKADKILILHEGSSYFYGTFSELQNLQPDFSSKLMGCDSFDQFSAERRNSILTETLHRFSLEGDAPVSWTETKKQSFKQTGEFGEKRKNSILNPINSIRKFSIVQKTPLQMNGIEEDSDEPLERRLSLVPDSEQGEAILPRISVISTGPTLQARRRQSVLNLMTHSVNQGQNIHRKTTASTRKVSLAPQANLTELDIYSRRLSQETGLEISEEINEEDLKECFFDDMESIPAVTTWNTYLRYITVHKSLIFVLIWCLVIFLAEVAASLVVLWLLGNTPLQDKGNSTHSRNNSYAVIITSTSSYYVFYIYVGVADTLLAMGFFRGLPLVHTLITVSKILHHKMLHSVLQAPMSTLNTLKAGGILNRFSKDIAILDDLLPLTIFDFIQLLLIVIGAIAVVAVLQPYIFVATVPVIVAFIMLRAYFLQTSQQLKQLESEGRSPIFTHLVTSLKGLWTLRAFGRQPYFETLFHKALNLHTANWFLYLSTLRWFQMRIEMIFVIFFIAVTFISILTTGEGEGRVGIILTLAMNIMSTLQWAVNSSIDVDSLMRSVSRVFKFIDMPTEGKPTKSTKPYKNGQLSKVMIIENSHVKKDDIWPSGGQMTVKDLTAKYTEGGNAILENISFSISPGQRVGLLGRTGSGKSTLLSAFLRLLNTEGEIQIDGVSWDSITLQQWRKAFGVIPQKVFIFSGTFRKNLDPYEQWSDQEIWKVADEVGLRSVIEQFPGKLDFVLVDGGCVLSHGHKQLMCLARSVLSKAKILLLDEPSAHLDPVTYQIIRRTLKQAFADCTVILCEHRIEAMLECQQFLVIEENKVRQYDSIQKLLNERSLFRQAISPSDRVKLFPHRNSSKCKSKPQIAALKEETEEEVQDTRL

For `Cc1cccc(C)c1-c1cc2nc(n1)NS(=O)(=O)c1cccc(c1)C(=O)N1CCN(C3CCC(F)(F)CC3)C[C@H](C1)O2` [Compound 4, (16R)-18-(4,4-Difluorocyclohexyl)-12-(2,6-dimethylphenyl)-15-oxa-8λ^6-thia-1,9,11,18,22-pentaazatetracyclo[14.4.1.13,7.110,14]tricosa-3(23),4,6,10(22),11,13-hexaene-2,8,8-trione], under “Enteroid Assay A”, the “Ent. A Max Activity (%)” value is recorded as “+++ (+++ is >600%)” and the pEC50 is more than 6.00.

For the molecule `Cc1cccc(C)c1-c1cc2nc(n1)NS(=O)(=O)c1cccc(c1)C(=O)N1CCN(CC3CCCCC3)CC(C1)O2` (stereo not drawn) [Compound 53], the pEC50 under setting [1] is more than 6.00. Also, the “Ent. A Max Activity (%)” value under setting [2] is “++ (++ is 30-60%)”.

In the case of `Cc1cccc(C)c1-c1cc2nc(n1)NS(=O)(=O)c1cccc(c1)C(=O)N1CCN(CCCC(C)(C)C)CC1CO2` (stereo not drawn) [Compound 313], the negative-log EC50 (pEC50) under setting [1] is more than 6.00. The “Ent. A Max Activity (%)” value under setting [2] is listed as “+++ (+++ is >60%)”.

With `Cc1cccc(C)c1-c1cc2nc(n1)NS(=O)(=O)c1cccc(c1)C(=O)N1CCN(C3CC4(CCCCC4)C3)C[C@H](C1)O2` [Compound 3, (16R)-12-(2,6-Dimethylphenyl)-18-{spiro[3.5]nonan-2-yl}-15-oxa-8λ^6-thia-1,9,11,18,22-pentaazatetracyclo[14.4.1.13,7.110,14]tricosa-3(23),4,6,10(22),11,13-hexaene-2,8,8-trione], where the note is “Enteroid Assay A”, the “Ent. A Max Activity (%)” value is on record as “+++ (+++ is >600%)” and the pEC50 was more than 6.00.

Turning to `Cc1cccc(C)c1-c1cc2nc(n1)NS(=O)(=O)c1cccc(c1)C(=O)N1CCNCC(O2)C1CC(C)C` (single isomer, unassigned) [Compound 91, 12-(2,6-Dimethylphenyl)-21-(2-methylpropyl)-15-oxa-8λ^6-thia-1,9,11,18,22-pentaazatetracyclo[14.4.1.13,7.110,14]tricosa-3(23),4,6,10(22),11,13-hexaene-2,8,8-trione], under “Enteroid Assay A”, the “Ent. A Max Activity (%)” value is “+++ (+++ is >600%)” and the negative logarithm of the EC50 (pEC50) was 5.52 to 6.00.

In the case of `Cc1cccc(C)c1-c1cc2nc(n1)NS(=O)(=O)c1cc(n(C)c1)C(=O)N1Cc3ccccc3C(C1)O2` (stereo not drawn) [Compound 207, 11-(2,6-Dimethylphenyl)-4-methyl-14-oxa-7λ^6-thia-1,4,8,10,24-pentaazapentacyclo[13.7.1.13,6.19,13.016,21]pentacosa-3(25),5,9(24),10,12,16(21),17,19-octaene-2,7,7-trione], the pEC50 under setting [1] is more than 6.00. Further, the “Ent. A Max Activity (%)” value under setting [2] was “++ (++ is 30-60%)”.

As to `Cc1cccc(C)c1-c1cc2nc(n1)NS(=O)(=O)c1cccc(c1)NC(=O)[C@@H]1CNCCN1c1cccc(c1)O2` [Compound 334], the pEC50 under setting [1] is 5.52 to 6.00. The “Ent. A Max Activity (%)” value under setting [2] was “+++ (+++ is >60%)”.

`Cc1cccc(C)c1-c1cc2nc(n1)NS(=N)(=O)c1cccc(c1)C(=O)N1CCN(CCC(C)(C)C)C[C@H](C1)O2` (single isomer, unassigned) [Compound 244, 18-(3,3-dimethylbutyl)-12-(2,6-dimethylphenyl)-8-imino-15-oxa-8λ^6-thia-1,9,11,18,22-pentaazatetracyclo[14.4.1.13,7.110,14]tricosa-3,5,7(23),10,12,14(22)-hexaene-2,8-dione]: the “Ent. A Max Activity (%)” value (Enteroid Assay A) is “+ (+ is <30%)”.

On to `Cc1cccc(C)c1-c1cc2nc(n1)NS(=O)(=O)c1cccc(c1)C(=O)N1CCN(CC3CCCCC3)CC1CO2` (stereo not drawn) [Compound 309], for which the pEC50 under setting [1] is more than 6.00. In addition, the “Ent. A Max Activity (%)” value under setting [2] is “++ (++ is 30-60%)”.

On to `Cc1cccc(C)c1-c1cc2nc(n1)NS(=O)(=O)c1cccc(c1)C(=O)N1C[C@@H](CN(C3CCC(F)(F)CC3)C[C@H]1C(C)C)O2` [Compound 126, (16R,20R)-18-(4,4-Difluorocyclohexyl)-12-(2,6-dimethylphenyl)-20-(propan-2-yl)-15-oxa-8λ^6-thia-1,9,11,18,22-pentaazatetracyclo[14.4.1.13,7.110,14]tricosa-3(23),4,6,10(22),11,13-hexaene-2,8,8-trione], for which, where the note is “Enteroid Assay A”, the “Ent. A Max Activity (%)” value is on record as “+++ (+++ is >600%)” and the pEC50 is more than 6.00.

`Cc1cccc(C)c1-c1cc2nc(n1)NS(=O)(=O)c1cccc(c1)C(=O)N1CCN(Cc3ccccc3)C[C@@H](C1)O2` [Compound 68, (16S)-18-benzyl-12-(2,6-dimethylphenyl)-15-oxa-8λ^6-thia-1,9,11,18,22-pentaazatetracyclo[14.4.1.13,7.110,14]tricosa-3(23),4,6,10,12,14(22)-hexaene-2,8,8-trione]: the pEC50 under setting [1] is 5.52 to 6.00. Besides, the “Ent. A Max Activity (%)” value under setting [2] is recorded as “+ (+ is <300%)”.

`Cc1cccc(C)c1-c1cc2nc(n1)NS(=O)(=O)c1cccc(c1)C(=O)N1CCN(C(=O)NC3CCCCCC3)C[C@@H]1CO2` [Compound 166, (8R)—N-Cycloheptyl-13-(2,6-dimethylphenyl)-2,17,17-trioxo-10-oxa-17λ^6-thia-3,6,14,16,23-pentaazatetracyclo[16.3.1.111,15.03,8]tricosa-1(21),11,13,15(23),18(22),19-hexaene-6-carboxamide]: the negative logarithm of the EC50 (pEC50) under setting [1] was 4.52 to 5.52. Moreover, the “Ent. A Max Activity (%)” value under setting [2] is “+++ (+++ is >60%)”.

Consider `Cc1cccc(C)c1-c1cc2nc(n1)NS(=O)(=O)c1cccc(c1)C(=O)N1CCN(CC3CC3)C[C@H](C1)O2` [Compound 35, (16R)-18-(Cyclopropylmethyl)-12-(2,6-dimethylphenyl)-8,8-dioxo-15-oxa-8λ^6-thia-1,9,11,18,22-pentazatetracyclo[14.4.1.13,7.110,14]tricosa-3,5,7(23),10(22),11,13-hexaen-2-one], for which, under setting [1], the pEC50 was more than 6.00. Besides, the “Ent. A Max Activity (%)” value under setting [2] is listed as “+++ (+++ is >60%)”.

Take `Cc1cccc(C)c1-c1cc2nc(n1)NS(=O)(=O)c1cc(n(C)c1)CC(=O)N1Cc3ccccc3C(C1)O2` (stereo not drawn) [Compound 348]: the pEC50 under setting [1] was 5.52 to 6.00. Moreover, the “Ent. A Max Activity (%)” value under setting [2] is recorded as “++ (++ is 30-60%)”.

Consider `Cc1cccc(C)c1-c1cc2nc(n1)NS(=O)(=O)c1cccc(c1)C(=O)N1Cc3cc(C(C)(C)C)ccc3[C@@H](O2)[C@H]1CC(C)C` [Compound 185, (16R,24R)-20-tert-butyl-12-(2,6-dimethylphenyl)-24-(2-methylpropyl)-15-oxa-8λ^6-thia-1,9,11,25-tetraazapentacyclo[14.7.1.13,7.110,14.017,22]hexacosa-3,5,7(26),10,12,14(25),17,19,21-nonaene-2,8,8-trione], for which, where the note is “Enteroid Assay A”, the “Ent. A Max Activity (%)” value was “+++ (+++ is >600%)” and the pEC50 is more than 6.00.

Turning to `Cc1cccc(C)c1-c1cc2nc(n1)NS(=O)(=O)c1cccc(c1)CCC(=O)N1Cc3ccccc3C(C1)O2` (stereo not drawn) [Compound 345], the “Ent. A Max Activity (%)” value under setting [2] is “+ (+ is <300%)”.

As to `Cc1cccc(C)c1-c1cc2nc(n1)NS(=O)(=O)c1cccc(c1)C(=O)N1CC(NC(=O)OC(C)(C)C)CC(C1)O2` (stereo not drawn) [Compound 320], the pEC50 under setting [1] was 5.52 to 6.00. In addition, the “Ent. A Max Activity (%)” value under setting [2] is “++ (++ is 30-60%)”.

With `Cc1cccc(C)c1-c1cc2nc(n1)NS(=O)(=O)c1cccc(c1)C(=O)N1C[C@@H](CN(C3CCCC3)C[C@H]1CC(C)C)O2` [Compound 138], for the setting “Enteroid Assay A”, the “Ent. A Max Activity (%)” value is recorded as “++ (++ is 30-60%)” and the pEC50 was more than 6.00.

As to `Cc1cccc(C)c1-c1cc2nc(n1)NS(=O)(=O)c1cc(n(C)n1)C(=O)N1Cc3ccccc3[C@H](C1)O2` [Compound 341], the pEC50 under setting [1] is 4.52 to 5.52. Also, the “Ent. A Max Activity (%)” value under setting [2] is reported as “++ (++ is 30-60%)”.

`Cc1cccc(C)c1-c1cc2nc(n1)NS(=O)(=O)c1cccc(c1)C(=O)N1CCN(CCCCO)C[C@H](C1)O2` [Compound 33]: under “Enteroid Assay A”, the “Ent. A Max Activity (%)” value is “+++ (+++ is >600%)” and the pEC50 was 4.52 to 5.52.

As for `Cc1cccc(C)c1-c1cc2nc(n1)NS(=O)(=O)c1cccc(c1)C(=O)N1C[C@@H](CN(CC(C)(C)C)C[C@H]1CC(C)C)O2` [Compound 104, (16R,20R)-12-(2,6-Dimethylphenyl)-18-(2,2-dimethylpropyl)-20-(2-methylpropyl)-15-oxa-8λ^6-thia-1,9,11,18,22-pentaazatetracyclo[14.4.1.13,7.110,14]tricosa-3(23),4,6,10,12,14(22)-hexaene-2,8,8-trione], for the setting “Enteroid Assay A”, the “Ent. A Max Activity (%)” value is given as “+++ (+++ is >600%)” and the pEC50 was more than 6.00.

As for `Cc1cccc(C)c1-c1cc2nc(n1)NS(=O)(=O)c1cccc(c1)C(=O)N1CCN(C3CCC3(C)C)C[C@H](C1)O2` (single isomer, unassigned) [Compound 9], under “Enteroid Assay A”, the “Ent. A Max Activity (%)” value is recorded as “+++ (+++ is >600%)” and the pEC50 was more than 6.00.

Regarding `Cc1cccc(C)c1-c1cc2nc(n1)NS(=O)(=O)N1CCc3ccc(cc31)C(=O)N1Cc3ccccc3[C@@H](O2)[C@H]1CC(C)C` [Compound 249], under “Enteroid Assay A”, the “Ent. A Max Activity (%)” value is recorded as “++ (++ is 30-60%)” and the pEC50 was more than 6.00.

Take `Cc1cccc(C)c1-c1cc2nc(n1)NS(=O)(=O)c1cccc(c1)C(=O)N1CCN(CCC(C)CC(C)(C)C)CC(C1)O2` (stereo not drawn) [Compound 62]: the pEC50 under setting [1] is more than 6.00. The “Ent. A Max Activity (%)” value under setting [2] was “+++ (+++ is >60%)”.

For `Cc1cccc(C)c1-c1cc2nc(n1)NS(=O)(=O)c1cccc(c1)C(=O)N1CCN(Cc3ccn(C)n3)CC(C1)O2` (stereo not drawn) [Compound 49], the pEC50 under setting [1] was 4.52 to 5.52. For the same molecule, under setting [2], the “Ent. A Max Activity (%)” value was “+++ (+++ is >60%)”.

Consider `Cc1cccc(C)c1-c1cc2nc(n1)NS(=O)(=O)c1cccc(c1)C(=O)N1CCN(Cc3ncccn3)C[C@@H]1CO2` [Compound 286], for which, under setting [2], the “Ent. A Max Activity (%)” value is on record as “+ (+ is <300%)”.

`Cc1cccc(C)c1-c1cc2nc(n1)NS(=O)(=O)c1cccc(c1)C(=O)N1CCN(Cc3ccc[nH]c3=O)C[C@@H]1CO2` [Compound 277]: the “Ent. A Max Activity (%)” value under setting [2] is listed as “+ (+ is <300%)”.

Take `Cc1cccc(C)c1-c1cc2nc(n1)NS(=O)(=O)c1cccc(c1)C(=O)N1CCN(Cc3cncn3C)C[C@@H]1CO2` [Compound 279]: the “Ent. A Max Activity (%)” value under setting [2] is on record as “+ (+ is <300%)”.
